Literature values as cited in patent US20090209641A1, “PHARMACEUTICAL COMPOSITION FOR ADMINISTRATION BY INJECTION” (priority 2006, published 2009).

- solubility in water: 17 mg/mL
SMILES: N.N.O=C([O-])C1(C(=O)[O-])CCC1.[Pt+2] [carboplatinum]
